Source: patent publication US20230190657A1, “METHODS AND COMPOSITIONS FOR TREATING A FIBROTIC DISEASE” (TRUSTEES OF BOSTON UNIVERSITY, priority 2020, published 2023)
“Also recorded” adds a separate entry of the source.

Columns and labels:
[1] = Circular dichroism spectroscopy of relaxin-2 fold and stability; type: physicochemical
Method: Relaxin-2 loaded PLGA microparticles (RMPs) were prepared based on the water/oil/water (w/o/w) method as described by Igartua, M., et. al., International Journal of Pharmaceutics, 1998, 169(1): 45-54 at 1.27 x 10-3 wt % loaded relaxin as determined by ELISA analysis. Significant optimization and tailoring of the method was required to obtain the particle. Amounts, time, temperature, mixing speed, polymer LA:GA content were all varied to identify a unique non-obvious set of conditions to prepare the polymer. […] Relaxin-2 in the relaxin-2 microparticles maintained its native secondary and tertiary structure through the w/o/w double-emulsion process. […] Additionally, relaxin-2 was stable at 37° C. over 2 months (FIG. 2, right). The relaxin-2 PLGA microparticles were prepared with batch-to-batch consistency and were resuspended in PEG-600 to reduce aggregation and flocculation, as well as to ease administration through a 23G needle.
Two amphiphilic hydrogels were synthesized for the physical entrapment of relaxin-2 in order to control its sustained release (FIG. 6). These amphiphilic molecules melted at 95 °C and congealed when slowly cooled back to room temperature strictly from non-covalent interactions. The alkyl chain of 1 and alkyl fluoride chain of 2 allow for hydrophobic interactions between each molecule, while the […] and thymidine moieties allow for pi-pi stacking. Lastly, the deoxyribose and glucose groups facilitate hydrogen bonding (Godeau, G., et al., Tetrahedron Letters 2010, 51: 1012-1015; Ramen, F.A. et al., Biomaterials. 2017, 145: 72-80). Together, these amphiphilic molecules create unique and stable supramolecular assemblies that are stable at 37 °C for at least two weeks. This stability feature is another novel finding and benefit to the use of the hydrogels. Three gels of each 1 and 2 were created with bovine serum albumin and relaxin-2 at different densities by dissolving each molecule in a solution of phosphate buffered saline with protein and heating to 95 °C for 30 minutes. […] After cooling down to room temperature, relaxin-2-loaded gels were fully congealed (FIG. 7, right).

[2] = system: collagen I expression in human fibroblast-like synoviocytes (HFLS); test: Collagen I expression in HFLS treated with relaxin-2 microparticles in transwells; type: cell-based
Source text: Human fibroblast-like synoviocytes (HFLS) treated with relaxin-2 microparticles in transwells allow for evaluation of the release and efficacy of released relaxin-2 at various time points. […] In the presence of relaxin-2, collagen I is expressed at 20 to 30 % of the basal level at weeks 1, 3, and 4.

[3] = system: stiff shoulder (shoulder contracture), glenohumeral joint; test: Range of motion in rat shoulder contracture model; type: in vivo, rats
Method: The study was approved by the Institutional Animal Care and Use Committee, and 10 Sprague-Dawley rats (250-300 g, Charles River Laboratories, Wilmington, MA, USA) were used in the study. For each animal, torque was measured per degree, on the intact left shoulder as a function of rotation angle between 80° of internal rotation (negative values by convention) and 60° of external rotation (positive values by convention) prior to any surgical intervention (baseline). […] Therefore, torque values at 60° external rotation (rOUT) and 80° of internal rotation (τINT) were recorded for each animal.
The left forelimb of each animal was immobilized using extraarticular internal fixation. Under isoflurane anesthesia, a longitudinal skin incision was made perpendicular to the scapular spine. Two No. 2-0 braided polyester sutures (Ethibond Excel, Ethicon - San Lorenzo, PR, USA) were passed between the medial border of the scapula and the humeral shaft and tightened to immobilize the shoulder joint (FIG. 1, panel A). Muscular structures were not manipulated during surgery, and the animals were allowed normal activity in their cages immediately after the procedure.
After 8 weeks of immobilization, the restraining sutures were removed, and the 10 animals were divided into two groups to evaluate changes in ROM (ROM group, n = 5) and joint stiffness (stiffness group, n = 5). In the ROM group, changes in kinematics were longitudinally quantified in the follow-up period by measuring the ROM achieved with the τOUT and τINT measured at baseline. This was conducted to evaluate whether immobilization mediated a significant reduction in ROM. In the stiffness group, joint kinetics were examined by measuring the differences in τOUT and τINT needed to achieve the original 80° of internal rotation and 60° of external rotation, respectively. […]
To reproducibly capture ROM and torque, passive limb rotation was performed by a stepper motor controlled with a microcontroller (UNO R3, Arduino - Torino, Italy). […] In the ROM group, pre-set programmable torque values, specific for each animal and measured at baseline (τOUT and τINT), were used as input variables in order to detect changes in rotation ROM with 0.2° resolution. […]
This study investigated the effects of recombinant human relaxin-2 on the kinetics and kinematics of the glenohumeral joint in an animal model of shoulder contracture, as described in Villa-Camacho et al., Journal of Shoulder and Elbow Surgery, 2015, 24(11): 1809-16. […] For each animal, torque was measured per degree, on the intact left shoulder as a function of rotation angle between […] and 60° of external rotation prior to any surgical intervention. […]

[4] = system: shoulder joint (arthrofibrosis); test: Histological analysis of the shoulder joint in rat shoulder contracture model; type: in vivo; settings: immobilized shoulders of rats; mIA of relaxin-2 or relaxin loaded microparticles
human fibroblasts = settings: cited from earlier work
[5] = system: collagen build-up in the lung induced by bleomycin; settings: cited from earlier work
[6] = system: cultured renal fibroblasts, epithelial cells and mesangial cells; settings: cited from earlier work
heart failure = settings: 30 micrograms/kg/day for 2 days, intravenous infusion; cited from earlier work
[7] = in vivo; cited from earlier work
[8] = system: scleroderma (systemic sclerosis); settings: cited from earlier work

Relaxin-2
time stable at 37° C. without loss of alpha helical structure [1]: up to 2 months
time stable at 37° C. without loss of alpha helical structure ([1]; listed as relaxin-2): 2 months
conformation after incubation at 95° C. ([1]; 95° C., at least one hour): maintains its folded 3D structure; also recorded: tolerant to incubation for at least one hour
secondary (alpha helical) structure after the double emulsion process ([1]; w/o/w double emulsion of PLGA microparticle synthesis): no change; also recorded: unaffected by the double emulsion process
antifibrotic efficacy (downregulation of collagen I expression) of released relaxin-2 ([2]; HFLS / synoviocytes, over four weeks, versus untreated control): significant downregulation in collagen I expression
collagen I level by densitometry (reduced to) ([2]; synoviocytes, legend of FIG. 4 breaks off): approximately 50%
internal ROM ([3]; intravenous injection at a much greater dose): similarly constricted internal ROM compared with the untreated control group
internal ROM ([3]; relaxin-2 as mIA (5 intraarticular injections of 2 ug/kg every other day), RMP as single injection of approximately 10 ug/kg): significant increase back to healthy baseline by week 2
internal ROM ([3]; relaxin-2 as mIA (5 intraarticular injections of 2 ug/kg every other day), RMP as single injection of approximately 10 ug/kg, listed as relaxin-2): restoration of internal ROM to baseline measurements
internal ROM ([3]; singular articular injection): similarly constricted internal ROM compared with the untreated control group
histology: adhesions / hallmarks of arthrofibrosis [4]: lacked any apparent adhesions
collagen and fibronectin levels (human fibroblasts): reduction in levels of collagen types I and III and fibronectin
lung collagen build-up [5]: decreased collagen build-up in the lung induced by bleomycin
TGF-β-induced fibronectin levels [6]: decreased TGF-β-induced fibronectin levels
primary endpoint of effectiveness (heart failure): did not meet the trial’s primary endpoint of effectiveness
pharmacokinetic profile [7]: rapid pharmacokinetic profile
primary endpoint of effectiveness ([8]; 25 micrograms/kg/day for 24 weeks, subcutaneous delivery): did not meet the trial’s primary endpoint of effectiveness
renal adverse events ([8]; human, in vivo, sc): declines in creatine clearance and renal adverse events
